Results on 5 molecules are retold here after patent US6585961B1, “Antimicrobial compositions” (priority 2001, dated 2003).

Series [1] in a line: Appearance and particle size of essential oil emulsion with surfactant. The format is physicochemical. To be noted: Table I; for Appearance: emulsion of essential oils with surfactant; for Estimated Particle Size: micelle of essential oils with surfactant. An excerpt: Since there are literally thousands of surfactants, many of which fulfill these criteria, it would be a very difficult task to examine every one of them on an individual basis. […]

Series [2] is described as follows: Hydrophile-lipophile balance (HLB) of surfactant. The format is physicochemical. To be noted: for HLB: Table I; for HLB Value: surfactants (2 wt. %) found to give the desired results. An excerpt: An old and well-accepted method to determine functionality of surfactants is known as the hydrophile -lipophile balance (HLB). The HLB is an expression of the relative simultaneous attraction of a surfactant for water and for oil. The HLB of a surfactant determines the type of an emulsion that tends to be formed. It is an indicative of the behavior characteristics and not an indication of surfactant efficiency.
When two or more surfactants are to be blended the HLB of the combinations is easily calculated. If x is the proportion of one surfactant having an HLB of A, and the other surfactant has an HLB of B, the HLB of the combination can be expressed for all practical purposes as xA+(1−x)B. This is a straight-line relationship. If the value of this 16 or greater, then most likely the combination will be workable.

In the case of `CCCCCCCCCCCCCCCCCC(=O)OCCO` [Glycol stearate LIPO EGDS, Glycol stearate], in series [1], the Appearance is 2 phase and the “Estimated Particle Size” value is given as “very large^1”. For the same molecule, in series [2], the HLB is 2.0.

“Cocamidopropyl betaine [Tego Betaine ZF]”: in series [1], the Appearance result was “transparent” and the “Estimated Particle Size” value is given as “≧0.05u”.

Take “Glyceryl dilaurate [Glyceryl dilaurate Lexemul GDL]”: in series [1], the Appearance result is “not dispersible” and the “Estimated Particle Size” value is “very large^1”. In addition, the HLB in series [2] turned out to be 2.4.

In the case of `CCCCCCCCCCCCOS(=O)(=O)[O-].[Na+]` [Dodecyl sulfate, sodium salt], the “HLB Value” in series [2] is “˜40”.

Take “DL-2-pyrrolidone-5-carboxylic acid salt of ethyl N-cocoyl-L-arginate”: the “HLB Value” in series [2] is more than 20.
